Experimental data as given in BigSolDB 2.1.

O=c1[nH]cc(F)c(=O)[nH]1
solubility (mole fraction)
Conditions	283.15 K	288.15 K	293.15 K	298.15 K	303.15 K	308.15 K	313.15 K	318.15 K	323.15 K
in DMF	0.00344	0.00452	0.00556	0.00658	0.00779	0.00923	0.0109	0.0127	0.0143
in acetic acid	0.000413	0.000496	0.000592	0.000722	0.000891	0.0011	0.00134	0.0017	0.0022
in ethanol	0.00202	0.00224	0.00245	0.00268	0.00301	0.00331	0.00369	0.00402	0.00451
in formic acid	0.000481	0.000568	0.000675	0.000827	0.000988	0.00121	0.00147	0.00186	0.00238
in isobutanol	0.000629	0.000731	0.000854	0.00101	0.0012	0.00143	0.00173	0.00213	0.00261
in isopentanol	0.000714	0.000823	0.00095	0.00112	0.00132	0.00156	0.00188	0.00232	0.00276
in isopropanol	0.000549	0.000647	0.000762	0.000908	0.00107	0.00132	0.00161	0.00195	0.00247
in methanol	0.00313	0.00357	0.0041	0.00464	0.00521	0.0058	0.00643	0.00713	0.00787
in n-butanol	0.00101	0.00113	0.00128	0.00147	0.00168	0.00197	0.00232	0.00269	0.0031
in n-butyric acid	0.000247	0.000296	0.000364	0.000444	0.000557	0.000696	0.000877	0.00111	0.00143
in n-pentanol	0.000791	0.000902	0.00104	0.0012	0.0014	0.00166	0.00199	0.00226	0.00286
in n-propanol	0.00184	0.00213	0.00242	0.00272	0.00303	0.00338	0.00376	0.00415	0.00465
in propionic acid	0.000374	0.000454	0.000536	0.000668	0.000816	0.00101	0.0013	0.00166	0.00214
in water	0.0011	0.00131	0.00153	0.00175	0.00198	0.00229	0.00256	0.00298	0.00345
